Reference: patent CN108864033A, “苯基取代的酰肼衍生物及其用途” (Guangdong HEC Pharmaceutical Co Ltd, priority 2017, dated 2018)

The compounds below were run on glutamate-induced oxidative stress injury of HT22 cells (谷氨酸诱导的HT22细胞氧化应激损伤) (assay: Protection of HT22 cells against glutamate-induced oxidative stress injury (LDH release, cell viability)). Conditions: HT-22, HT22 mouse hippocampal neuronal cells, 15 mM glutamate, 24 h, 10 concentrations, 0.25% DMSO.
Type: cell-based

How did the EC50 turn out when `CC(=O)N(/N=C/c1ccc2c(c1)OCO2)c1ccc(C)cc1C` [实施例3, (E)-N'-(苯并-1,3-二恶环戊烷-5-亚甲基)-N-(2,4-二甲苯基)乙酰肼] was run?
The EC50 was 4120 nM.

For `Cc1ccc(N(/N=C/c2ccc3c(c2)OCO3)C(=O)C(F)(F)F)c(C)c1` [实施例1, (E)-N'-(苯并-1,3-二恶环戊烷-5-亚甲基)-N-(2,4-二甲苯基)-2,2,2-三氟乙酰肼], which EC50 is on record?
Its EC50 is 130 nM.

For `Cc1ccc(N(/N=C/c2ccc(Cl)cc2Cl)C(=O)C(F)(F)F)c(C)c1` [实施例2, (E)-N'-(2,4-二氯苯亚甲基)-N-(2,4-二甲苯基)-2,2,2-三氟乙酰肼], which EC50 is on record?
The EC50 was 130 nM.
